Assay results from patent publication US20100016379A1, “Terephthalamate Compounds and Compositions, and Their Use as HIV Integrase Inhibitors” (IRM LLC, priority 2006, published 2010).
Like-named read-outs stand apart in the source and are kept apart here.

Key:
HIV-1 integrase = biological target: T1, HIV-1 integrase (Human immunodeficiency virus type 1 group M subtype B, UniProt P04585); test: HIV-1 integrase strand transfer assay (Screen 2); format: biochemical
T1 construct: An HIV-1 integrase strand transfer assay
From the text: Screen 2: An HIV-1 integrase strand transfer assay, (see Wang et al, J. Biomol. Screen. (2005) 10: 456), that identifies anti-HIV activity due to inhibition of HIV integrase.

HIV = test: cell-based HIV luciferase reporter infection assay (Screen 1); settings: for EC50: Human immunodeficiency virus 1, read-out: HIV Activity EC50
Experimental: HIV therapeutic agents inhibit propagation of HIV in cells, and as such cell-based assays of HIV antiviral activity have been developed. For example, Pauwels et al, Nature (1990) 343: 470-4 describe incubating HIV infected cells with test compounds and subsequently determining cell viability via colorimetric methods, to give an EC50 for the inhibition of HIV-1 replication.
Screen 1: A high throughput cell-based HIV luciferase reporter infection assay (see He et al, Bioorg. Med. Chem. Lett. (2006) 16) that identifies inhibitors of early HIV infection events. The results are shown in Table 2 below, expressed as EC50 (μM), the molar concentration that produces 50% of the maximal possible response.

[1] = cytotoxicity assay (Screen 3); format: cell-based; settings: human, HE 293T cells
From the text: Screen 3: A cytotoxicity assay, to determine inhibitory activity against HE 293T cells.

[2] = tested on: NNRTI resistant mutant Y188L; test: Inhibition of NNRTI resistant mutants, Y188L; format: cell-based, HIV; settings: Human immunodeficiency virus 1, read-out: Inhibition of NNRTI resistant mutants (EC50) Y188L
Experimental: (§1) Select compounds are assayed against key NNRTI resistant mutants.

[3] = tested on: NNRTI resistant mutant L100I; test: Inhibition of NNRTI resistant mutants, L100I; format: cell-based, HIV; settings: Human immunodeficiency virus 1, read-out: Inhibition of NNRTI resistant mutants (EC50) L100I
Experimental: as §1

[4] = tested on: NNRTI resistant mutant Y181C; test: Inhibition of NNRTI resistant mutants, Y181C; format: cell-based, HIV; settings: Human immunodeficiency virus 1, read-out: Inhibition of NNRTI resistant mutants (EC50) Y181C
Experimental: as §1

WT = test: Inhibition of NNRTI resistant mutants, WT; format: cell-based, HIV; settings: Human immunodeficiency virus 1, read-out: Inhibition of NNRTI resistant mutants (EC50) WT
Experimental: as §1

[5] = tested on: NNRTI resistant mutant K103N; test: Inhibition of NNRTI resistant mutants, K103N; format: cell-based, HIV; settings: Human immunodeficiency virus 1, read-out: Inhibition of NNRTI resistant mutants (EC50) K103N
Experimental: as §1

[6] = strand transfer assay, read-out: Integrase Activity IC50

| Compound | IC50 (HIV-1 integrase) | EC50 (HIV) | CC50 [1] | EC50 [2] | IC50 (HIV-1 integrase; [6]) | EC50 [3] | EC50 [4] | EC50 (WT) | EC50 [5] | activity in the enzymatic assay (HIV-1 integrase; result in words) | activity in the cellular assay (HIV; result in words) |
| --- | --- | --- | --- | --- | --- | --- | --- | --- | --- | --- | --- |
| COC(=O)c1ccc(C(=O)NCc2ccccc2)c(O)c1O [Compound 1, methyl 4-(benzylcarbamoyl)-2,3-dihydroxybenzoate] | 0.05 to 0.5 µM | 0.05 to 0.5 µM | > 2 µM |  |  |  |  |  |  |  |  |
| O=C(NCc1ccccc1)c1cccc(O)c1O [Compound 2, N-benzyl-2,3-dihydroxybenzamide] |  | > 2 µM | > 2 µM |  |  |  |  |  |  |  |  |
| O=C(NCc1ccccc1)c1cccc(O)c1 [Compound 3, N-benzyl-3-hydroxybenzamide] |  | > 2 µM | > 2 µM |  |  |  |  |  |  |  |  |
| O=C(NCc1ccccc1)c1ccccc1O [Compound 4, N-benzyl-2-hydroxybenzamide] |  | > 2 µM | > 2 µM |  |  |  |  |  |  |  |  |
| O=C(NCc1ccccc1)c1cccc(O)n1 [Compound 5, N-benzyl-6-hydroxypyridine-2-carboxamide] |  | > 2 µM | > 2 µM |  |  |  |  |  |  |  |  |
| O=C(NCc1ccccc1)c1cccnc1O [Compound 6, N-benzyl-2-hydroxypyridine-3-carboxamide] |  | > 2 µM | > 2 µM |  |  |  |  |  |  |  |  |
| COC(=O)c1ccc(C(=O)NCc2ccccc2OC)c(O)c1O [Compound 7, methyl 4-(2-methoxybenzylcarbamoyl)-2,3-dihydroxybenzoate] |  | < 0.05 µM | 0.5 to 2 µM | 0.05 to 0.5 µM | < 0.05 µM | < 0.05 µM | 0.05 to 0.5 µM | < 0.05 µM | < 0.05 µM |  |  |
| COC(=O)c1ccc(C(=O)NCc2cccc(OC)c2)c(O)c1O [Compound 8, methyl 4-(3-methoxybenzylcarbamoyl)-2,3-dihydroxybenzoate] |  | 0.05 to 0.5 µM | > 2 µM | 0.05 to 0.5 µM | < 0.05 µM | 0.05 to 0.5 µM | 0.05 to 0.5 µM | 0.05 to 0.5 µM | 0.05 to 0.5 µM |  |  |
| COC(=O)c1ccc(C(=O)NCc2ccc(OC)cc2)c(O)c1O [Compound 9, methyl 4-(4-methoxybenzylcarbamoyl)-2,3-dihydroxybenzoate] |  | 0.5 to 2 µM | > 2 µM |  | < 0.05 µM |  |  |  |  |  |  |
| COC(=O)c1ccc(C(=O)NCc2ccccc2[N+](=O)[O-])c(O)c1O [Compound 10, methyl 4-(2-nitrobenzylcarbamoyl)-2,3-dihydroxybenzoate] |  | 0.05 to 0.5 µM | 0.5 to 2 µM | 0.05 to 0.5 µM | < 0.05 µM | < 0.05 µM | 0.05 to 0.5 µM | 0.05 to 0.5 µM | < 0.05 µM |  |  |
| COC(=O)c1ccc(C(=O)NCc2cccc([N+](=O)[O-])c2)c(O)c1O [Compound 11, methyl 4-(3-nitrobenzylcarbamoyl)-2,3-dihydroxybenzoate] |  | < 0.05 µM | 0.5 to 2 µM | < 0.05 µM | < 0.05 µM | < 0.05 µM | 0.05 to 0.5 µM | < 0.05 µM | < 0.05 µM |  |  |
| COC(=O)c1ccc(C(=O)NCc2ccc([N+](=O)[O-])cc2)c(O)c1O [Compound 12, methyl 4-(4-nitrobenzylcarbamoyl)-2,3-dihydroxybenzoate] |  | 0.05 to 0.5 µM | 0.5 to 2 µM |  | 0.05 to 0.5 µM |  |  |  |  |  |  |
| COC(=O)c1ccc(C(=O)NCc2ccccc2C(F)(F)F)c(O)c1O [Compound 13, methyl 4-(2-(trifluoromethyl)benzylcarbamoyl)-2,3-dihydroxybenzoate] |  | 0.05 to 0.5 µM | 0.5 to 2 µM |  | 0.05 to 0.5 µM |  |  |  |  |  |  |
| COC(=O)c1ccc(C(=O)NCc2cccc(C(F)(F)F)c2)c(O)c1O [Compound 14, methyl 4-(3-(trifluoromethyl)benzylcarbamoyl)-2,3-dihydroxybenzoate] |  | 0.5 to 2 µM | 0.5 to 2 µM |  | 0.05 to 0.5 µM |  |  |  |  |  |  |
| COC(=O)c1ccc(C(=O)NCc2ccc(C(F)(F)F)cc2)c(O)c1O [Compound 15, methyl 4-(4-(trifluoromethyl)benzylcarbamoyl)-2,3-dihydroxybenzoate] |  | 0.5 to 2 µM | 0.5 to 2 µM |  | 0.5 to 2 µM |  |  |  |  |  |  |
| COC(=O)c1ccc(C(=O)NCc2ccccn2)c(O)c1O [Compound 16, methyl 4-((pyridin-2-yl)methylcarbamoyl)-2,3-dihydroxybenzoate] |  | 0.05 to 0.5 µM | > 2 µM | 0.05 to 0.5 µM | 0.05 to 0.5 µM | 0.05 to 0.5 µM | 0.05 to 0.5 µM | 0.05 to 0.5 µM | 0.05 to 0.5 µM |  |  |
| COC(=O)c1ccc(C(=O)NCc2cccnc2)c(O)c1O [Compound 17, methyl 4-((pyridin-3-yl)methylcarbamoyl)-2,3-dihydroxybenzoate] |  | 0.05 to 0.5 µM | > 2 µM |  | 0.05 to 0.5 µM |  |  |  |  |  |  |
| COC(=O)c1ccc(C(=O)NCc2ccncc2)c(O)c1O [Compound 18, methyl 4-((pyridin-4-yl)methylcarbamoyl)-2,3-dihydroxybenzoate] |  | 0.05 to 0.5 µM | > 2 µM |  | 0.05 to 0.5 µM |  |  |  |  |  |  |
| COC(=O)c1ccc(C(=O)N(C)Cc2ccccc2)c(O)c1O [Compound 19, methyl 4-(N-benzyl-N-methylcarbamoyl)-2,3-dihydroxybenzoate] |  | > 2 µM | > 2 µM |  | > 2 µM |  |  |  |  |  |  |
| COC(=O)c1ccc(C(=O)Nc2ccccc2)c(O)c1O [Compound 20, methyl 4-(phenylcarbamoyl)-2,3-dihydroxybenzoate] |  | < 0.05 µM | 0.5 to 2 µM | < 0.05 µM | < 0.05 µM | < 0.05 µM | < 0.05 µM | < 0.05 µM | < 0.05 µM |  |  |
| COC(=O)c1ccc2c(=O)n(Cc3ccccc3)c(=O)oc2c1O [Compound 21, 3-benzyl-8-hydroxy-2,4-dioxo-3,4-dihydro-2H-benzo[e][1,3]oxazine-7-carboxylic acid methyl ester] | 0.05 to 0.5 µM | 0.05 to 0.5 µM | > 2 µM | 0.05 to 0.5 µM |  | 0.05 to 0.5 µM | 0.05 to 0.5 µM | 0.05 to 0.5 µM | 0.05 to 0.5 µM | maintains activity | maintains activity |
| CC(C)Oc1ccc(Cc2ccccc2)cc1C(=O)CC(=O)C(=O)O [DKA, reference compound] |  | 0.05 to 0.5 µM | > 2 µM | 0.05 to 0.5 µM | 0.05 to 0.5 µM | 0.05 to 0.5 µM | 0.05 to 0.5 µM | 0.05 to 0.5 µM | < 0.05 µM |  |  |
| Cc1ccnc2c1NC(=O)c1cccnc1N2C1CC1 [NVP, Nevirapine, reference compound] |  | 0.05 to 0.5 µM | > 2 µM | > 2 µM |  | 0.05 to 0.5 µM | > 2 µM | 0.05 to 0.5 µM | > 2 µM |  |  |
